Columns and labels:
[1] = target: 5-hydroxytryptamine receptor 2B (Homo sapiens, UniProt P41595); assay type: cell membranes, CHO-K1, Membrane; settings: cho-k1; note: in other assays of this panel Not Active means under 50% inhibition at 10 µM
Melanocortin receptor 4 = Melanocortin receptor 4 (Homo sapiens, UniProt P32245); assay type: cell membranes, Membrane; settings: hek293; note: in other assays of this panel Not Active means under 50% inhibition at 10 µM
Adenosine receptor A3 = target: T1, Adenosine receptor A3 (Homo sapiens, UniProt P0DMS8); assay type: cell membranes, CHO-K1, Membrane; settings: cho-k1;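 note: radioligand binding assay with AB-MECA serving as the labeled ligand; in other assays of this panel Not Active means under 50% inhibition at 10 µM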
T1 sequence (P0DMS8 whole entry): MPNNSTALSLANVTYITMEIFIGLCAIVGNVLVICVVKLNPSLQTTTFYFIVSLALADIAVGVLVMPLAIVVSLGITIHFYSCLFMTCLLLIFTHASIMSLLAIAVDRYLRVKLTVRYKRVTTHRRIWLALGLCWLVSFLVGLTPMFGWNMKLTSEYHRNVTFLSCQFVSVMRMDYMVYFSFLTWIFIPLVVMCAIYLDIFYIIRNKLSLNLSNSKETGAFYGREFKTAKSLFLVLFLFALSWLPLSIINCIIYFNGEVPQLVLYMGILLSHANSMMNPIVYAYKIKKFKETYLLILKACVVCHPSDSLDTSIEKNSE

Acetylcholinesterase = Acetylcholinesterase (Homo sapiens, UniProt P22303); assay: DRUGMATRIX: Acetylcholinesterase enzyme inhibition (substrate: acetylthiocholine); assay type: cell-based, HEK293; settings: hek293; Not Active = under 50% inhibition at 10 µM
Sequence of Acetylcholinesterase (P22303 whole entry): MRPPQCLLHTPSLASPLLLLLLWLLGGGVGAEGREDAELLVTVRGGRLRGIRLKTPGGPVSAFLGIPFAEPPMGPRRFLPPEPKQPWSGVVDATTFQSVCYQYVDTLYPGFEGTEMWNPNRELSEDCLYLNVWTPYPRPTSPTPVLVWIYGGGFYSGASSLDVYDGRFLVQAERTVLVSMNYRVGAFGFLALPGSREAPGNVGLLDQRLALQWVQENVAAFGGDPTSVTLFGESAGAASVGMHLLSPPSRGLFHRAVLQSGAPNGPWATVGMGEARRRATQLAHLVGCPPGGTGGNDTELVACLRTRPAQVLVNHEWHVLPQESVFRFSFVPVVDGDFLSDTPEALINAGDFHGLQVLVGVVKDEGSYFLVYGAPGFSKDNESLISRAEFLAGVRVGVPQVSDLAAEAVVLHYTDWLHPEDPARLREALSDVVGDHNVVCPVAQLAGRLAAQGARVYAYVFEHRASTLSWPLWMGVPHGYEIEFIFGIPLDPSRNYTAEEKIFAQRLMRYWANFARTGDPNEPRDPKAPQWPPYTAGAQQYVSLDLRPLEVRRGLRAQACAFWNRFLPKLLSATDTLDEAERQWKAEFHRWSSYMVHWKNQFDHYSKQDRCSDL

[2] = DRUGMATRIX: Sodium/nucleoside co-transporter radioligand binding (ligand: nitrobenzylthioinosine); assay type: cell membranes, Cavia porcellus, Dunkin-Hartley, Cerebral cortex, Membrane; settings: Not Active = under 50% inhibition at 10 µM
[3] = target: Sodium-dependent noradrenaline transporter (Homo sapiens, UniProt P23975); assay: DRUGMATRIX: Norepinephrine Transporter radioligand binding (ligand: [125I] RTI-55); assay type: cell membranes, MDCK, Membrane; settings: mdck; Not Active = under 50% inhibition at 10 µM
Sequence of Sodium-dependent noradrenaline transporter (P23975 whole entry): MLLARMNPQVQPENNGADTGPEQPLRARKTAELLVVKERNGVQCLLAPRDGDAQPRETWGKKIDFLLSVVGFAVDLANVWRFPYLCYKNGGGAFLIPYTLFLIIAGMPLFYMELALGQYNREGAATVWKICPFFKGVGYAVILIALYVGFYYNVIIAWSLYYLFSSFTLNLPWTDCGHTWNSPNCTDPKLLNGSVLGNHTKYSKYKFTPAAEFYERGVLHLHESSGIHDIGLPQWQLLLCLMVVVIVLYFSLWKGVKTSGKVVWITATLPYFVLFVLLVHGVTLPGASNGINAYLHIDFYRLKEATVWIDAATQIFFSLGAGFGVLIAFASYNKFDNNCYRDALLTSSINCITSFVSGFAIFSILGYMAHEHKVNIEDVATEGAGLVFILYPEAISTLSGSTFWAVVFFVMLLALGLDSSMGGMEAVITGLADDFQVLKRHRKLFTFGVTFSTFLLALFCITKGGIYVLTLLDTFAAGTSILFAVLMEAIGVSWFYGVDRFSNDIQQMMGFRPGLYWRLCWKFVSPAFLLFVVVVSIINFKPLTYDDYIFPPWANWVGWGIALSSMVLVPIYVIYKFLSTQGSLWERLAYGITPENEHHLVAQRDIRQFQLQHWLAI

Sequence of Melanocortin receptor 4 (P32245 whole entry): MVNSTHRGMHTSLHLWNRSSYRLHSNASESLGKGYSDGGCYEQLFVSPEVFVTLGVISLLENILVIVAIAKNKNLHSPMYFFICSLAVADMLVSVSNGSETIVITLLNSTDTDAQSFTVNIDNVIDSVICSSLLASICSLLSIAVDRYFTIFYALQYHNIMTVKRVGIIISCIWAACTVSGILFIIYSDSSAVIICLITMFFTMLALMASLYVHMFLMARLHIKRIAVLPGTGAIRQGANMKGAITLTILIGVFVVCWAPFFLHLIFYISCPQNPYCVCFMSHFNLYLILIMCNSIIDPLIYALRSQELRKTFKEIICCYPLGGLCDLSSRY
Sequence of 5-hydroxytryptamine receptor 2B (P41595 whole entry): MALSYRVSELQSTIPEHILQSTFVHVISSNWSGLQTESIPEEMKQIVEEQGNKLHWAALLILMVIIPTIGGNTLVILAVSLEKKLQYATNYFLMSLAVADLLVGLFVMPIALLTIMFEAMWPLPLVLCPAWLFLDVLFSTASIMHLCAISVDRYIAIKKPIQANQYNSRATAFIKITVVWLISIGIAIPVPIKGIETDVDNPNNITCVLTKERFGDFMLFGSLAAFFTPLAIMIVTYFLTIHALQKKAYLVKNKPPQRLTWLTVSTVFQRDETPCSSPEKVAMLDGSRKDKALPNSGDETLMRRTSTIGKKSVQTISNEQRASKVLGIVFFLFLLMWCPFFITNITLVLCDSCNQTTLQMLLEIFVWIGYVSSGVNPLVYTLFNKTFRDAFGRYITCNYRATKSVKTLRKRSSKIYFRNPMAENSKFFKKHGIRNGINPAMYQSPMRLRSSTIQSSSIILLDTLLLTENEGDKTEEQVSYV

C[C@H](C(=O)O)c1ccc2oc(-c3ccc(F)cc3)nc2c1 [FLUNOXAPROFEN]
Not Active: IC50 [1] | IC50 (Melanocortin receptor 4) | IC50 (Adenosine receptor A3) | IC50 (Acetylcholinesterase) | IC50 [2] | Ki [2] | IC50 [3]

CC(C)Cn1cnc2c(N)nc3ccccc3c21 [IMIQUIMOD]
Not Active: IC50 [1] | IC50 (Melanocortin receptor 4) | IC50 (Adenosine receptor A3) | IC50 (Acetylcholinesterase) | IC50 [2] | Ki [2] | IC50 [3]

OC[C@H]1OC2C3[C@@H](CO)OC(O[C@H]4[C@H](O)[C@@H](O)[C@@H](O[C@H]5[C@H](O)[C@@H](O)[C@@H](O[C@H]6[C@H](O)[C@@H](O)[C@@H](O[C@H]7[C@H](O)[C@@H](O)[C@@H](O[C@H]8[C@H](O)[C@@H](O)[C@@H](O[C@H]9[C@H](O)[C@@H](O)C(OC1[C@H](O)[C@H]2O)O[C@@H]9CO)O[C@@H]8CO)O[C@@H]7CO)O[C@@H]6CO)O[C@@H]5CO)O[C@@H]4CO)[C@H](O)[C@H]3O
Not Active: IC50 [1] | IC50 (Melanocortin receptor 4) | IC50 (Adenosine receptor A3) | IC50 (Acetylcholinesterase) | IC50 [2] | Ki [2] | IC50 [3]

CCN1CCN(c2cc3c(cc2F)c(=O)c(C(=O)O)cn3C2CC2)CC1 [ENROFLOXACIN]
Not Active: IC50 [1] | IC50 (Melanocortin receptor 4) | IC50 (Adenosine receptor A3) | IC50 (Acetylcholinesterase) | IC50 [2] | Ki [2] | IC50 [3]

POVIDONE
Not Active: IC50 [1] | Ki [1] | IC50 (Melanocortin receptor 4) | Ki (Melanocortin receptor 4) | IC50 (Adenosine receptor A3) | Ki (Adenosine receptor A3) | IC50 (Acetylcholinesterase) | Ki (Acetylcholinesterase) | IC50 [2] | Ki [2] | IC50 [3] | Ki [3]

C=C(Cl)Cl [1,1-DICHLOROETHENE]
Not Active: IC50 [1] | IC50 (Melanocortin receptor 4) | IC50 (Adenosine receptor A3) | IC50 (Acetylcholinesterase) | IC50 [2] | Ki [2] | IC50 [3]

C#C[C@]1(O)CC[C@H]2[C@@H]3CCC4=CC(=O)CC[C@@H]4[C@H]3CC[C@@]21C [NORETHINDRONE]
Not Active: IC50 [1] | IC50 (Melanocortin receptor 4) | IC50 (Adenosine receptor A3) | IC50 (Acetylcholinesterase) | IC50 [2] | Ki [2] | IC50 [3]

C=CCN1CC[C@]23c4c5ccc(O)c4O[C@H]2/C(=N/N=C2\CC[C@@]4(O)[C@H]6Cc7ccc(O)c8c7[C@@]4(CCN6CC=C)[C@H]2O8)CC[C@@]3(O)[C@H]1C5 [NALOXONAZINE]
Not Active: IC50 [1] | IC50 (Melanocortin receptor 4) | IC50 (Adenosine receptor A3) | IC50 (Acetylcholinesterase) | IC50 [2] | Ki [2] | IC50 [3]

Oc1ncnc2[nH]ncc12 [ALLOPURINOL]
Not Active: IC50 [1] | IC50 (Melanocortin receptor 4) | IC50 (Adenosine receptor A3) | IC50 (Acetylcholinesterase) | IC50 [2] | Ki [2] | IC50 [3]

CCC1(c2ccccc2)C(=O)NC(=O)NC1=O [PHENOBARBITAL]
Not Active: IC50 [1] | IC50 (Melanocortin receptor 4) | IC50 (Adenosine receptor A3) | IC50 (Acetylcholinesterase) | IC50 [2] | Ki [2] | IC50 [3]

CHROMIC CHLORIDE
Not Active: IC50 [1] | Ki [1] | IC50 (Melanocortin receptor 4) | Ki (Melanocortin receptor 4) | IC50 (Adenosine receptor A3) | Ki (Adenosine receptor A3) | IC50 (Acetylcholinesterase) | Ki (Acetylcholinesterase) | IC50 [2] | Ki [2] | IC50 [3] | Ki [3]

CCCCCCNC(=O)n1cc(F)c(=O)[nH]c1=O [CARMOFUR]
Not Active: IC50 [1] | IC50 (Melanocortin receptor 4) | IC50 (Adenosine receptor A3) | IC50 (Acetylcholinesterase) | IC50 [2] | Ki [2] | IC50 [3]

O=C(O)CCc1nc(-c2ccccc2)c(-c2ccccc2)o1 [OXAPROZIN]
Not Active: IC50 [1] | IC50 (Melanocortin receptor 4) | IC50 (Adenosine receptor A3) | IC50 (Acetylcholinesterase) | IC50 [2] | Ki [2] | IC50 [3]

CCN1C[C@]2(COC)[C@H](O)C[C@H](OC)[C@@]34[C@@H]5C[C@@]6(O)[C@H](OC(=O)c7ccccc7)[C@@H]5[C@@](OC(C)=O)([C@@H]([C@H](OC)[C@H]23)[C@@H]14)[C@@H](O)[C@@H]6OC [ACONITINE]
Not Active: IC50 [1] | IC50 (Melanocortin receptor 4) | IC50 (Adenosine receptor A3) | IC50 (Acetylcholinesterase) | IC50 [2] | Ki [2] | IC50 [3]

Oc1ccccc1 [PHENOL]
Not Active: IC50 [1] | IC50 (Melanocortin receptor 4) | IC50 (Adenosine receptor A3) | IC50 (Acetylcholinesterase) | IC50 [2] | Ki [2] | IC50 [3]

Nc1nc(F)nc2c1ncn2[C@@H]1O[C@H](CO)[C@@H](O)[C@@H]1O [FLUDARABINE]
Not Active: IC50 [1] | IC50 (Melanocortin receptor 4) | IC50 (Adenosine receptor A3) | IC50 (Acetylcholinesterase) | IC50 [2] | Ki [2] | IC50 [3]

O=C1CN(/N=C/c2ccc([N+](=O)[O-])o2)C(=O)N1 [NITROFURANTOIN]
Not Active: IC50 [1] | IC50 (Melanocortin receptor 4) | IC50 (Adenosine receptor A3) | IC50 (Acetylcholinesterase) | IC50 [2] | Ki [2] | IC50 [3]

CC12CCC(CC1=O)C2(C)C (centres undefined) [CAMPHOR]
Not Active: IC50 [1] | IC50 (Melanocortin receptor 4) | IC50 (Adenosine receptor A3) | IC50 (Acetylcholinesterase) | IC50 [2] | Ki [2] | IC50 [3]

Nc1nc(N)c2nc(CNc3ccc(C(=O)N[C@@H](CCC(=O)O)C(=O)O)cc3)cnc2n1 [AMINOPTERIN]
Not Active: IC50 [1] | IC50 (Melanocortin receptor 4) | IC50 (Adenosine receptor A3) | IC50 (Acetylcholinesterase) | IC50 [2] | Ki [2] | IC50 [3]

Cc1c(N)nc([C@H](CC(N)=O)NC[C@H](N)C(N)=O)nc1C(=O)N[C@H](C(=O)N[C@H](C)[C@@H](O)[C@H](C)C(=O)N[C@H](C(=O)NCCc1nc(-c2nc(C(=O)NCCC[S+](C)C)cs2)cs1)[C@@H](C)O)[C@@H](O[C@@H]1O[C@@H](CO)[C@@H](O)[C@H](O)[C@@H]1O[C@H]1O[C@H](CO)[C@@H](O)[C@H](OC(N)=O)[C@@H]1O)c1c[nH]cn1.[Br-] [BLEOMYCIN A2]
Not Active: IC50 [1] | IC50 (Melanocortin receptor 4) | IC50 (Adenosine receptor A3) | IC50 (Acetylcholinesterase) | IC50 [2] | Ki [2] | IC50 [3]

OC[C@H]1O[C@@H]2O[C@H]3[C@H](O)[C@@H](O)[C@@H](O[C@H]4[C@H](O)[C@@H](O)[C@@H](O[C@H]5[C@H](O)[C@@H](O)[C@@H](O[C@H]6[C@H](O)[C@@H](O)[C@@H](O[C@H]7[C@H](O)[C@@H](O)[C@@H](O[C@H]1[C@H](O)[C@H]2O)O[C@@H]7CO)O[C@@H]6CO)O[C@@H]5CO)O[C@@H]4CO)O[C@@H]3CO [ALFADEX]
Not Active: IC50 [1] | IC50 (Melanocortin receptor 4) | IC50 (Adenosine receptor A3) | IC50 (Acetylcholinesterase) | IC50 [2] | Ki [2] | IC50 [3]

O=C(O)CNCP(=O)(O)O [GLYPHOSATE]
Not Active: IC50 [1] | IC50 (Melanocortin receptor 4) | IC50 (Adenosine receptor A3) | IC50 (Acetylcholinesterase) | IC50 [2] | Ki [2] | IC50 [3]
